Key:
[1] = Unbound fraction in mouse brain; assay type: ADME, tissue-based
[2] = target: Aurora kinase B (Homo sapiens) (UniProt Q96GD4); assay: Inhibition of wild-type human partial length AURKB (D25 to A303 residues) expressed in mammalian expression system assessed as residual activity at 1 uM by Kinomescan method relative to control
[3] = target: Calcium/calmodulin-dependent protein kinase type 1B (Homo sapiens) (UniProt Q6P2M8); assay: Inhibition of wild-type human partial length CAMK1B (W9 to A311 residues) expressed in mammalian expression system assessed as residual activity at 1 uM by Kinomescan method relative to control
[4] = target: Calcium/calmodulin-dependent protein kinase type 1D (Homo sapiens) (UniProt Q8IU85); assay: Inhibition of wild-type human partial length CAMK1D (M1 to K299 residues) expressed in bacterial expression system assessed as residual activity at 1 uM by Kinomescan method relative to control
[5] = target: Calcium/calmodulin-dependent protein kinase type IV (Homo sapiens) (UniProt Q16566); assay: Inhibition of wild-type human partial length CAMK4 (A22 to A322 residues) expressed in bacterial expression system assessed as residual activity at 1 uM by Kinomescan method relative to control
[6] = target: Calcium/calmodulin-dependent protein kinase kinase 2 (Homo sapiens) (UniProt Q96RR4); assay: Inhibition of wild-type human partial length CAMKK2 (D65 to V471 residues) expressed in bacterial expression system assessed as residual activity at 1 uM by Kinomescan method relative to control
[7] = target: CDK4/Cyclin D3 (Homo sapiens) (UniProt P11802+P30281); assay: Inhibition of wild-type human full length CDK4/cyclinD3 (M1 to E303 residues) expressed in mammalian expression system assessed as residual activity at 1 uM by Kinomescan method relative to control
Homo sapiens = species on record: Homo sapiens; assay: Inhibition of wild-type human full length CDK9 (M1 to F372 residues)/cyclin T1 expressed in bacterial expression system assessed as residual activity at 1 uM by Kinomescan method relative to control
[8] = target: Discoidin domain-containing receptor 2 (Homo sapiens) (UniProt Q16832); assay: Inhibition of wild-type human partial length DDR2 (V555 to E855 residues) expressed in mammalian expression system assessed as residual activity at 1 uM by Kinomescan method relative to control
[9] = target: Ephrin type-B receptor 3 (Homo sapiens) (UniProt P54753); assay: Inhibition of wild-type human partial length EPHB3 (Q599 to T928 residues) expressed in bacterial expression system assessed as residual activity at 1 uM by Kinomescan method relative to control
[10] = target: Mitogen-activated protein kinase 15 (Homo sapiens) (UniProt Q8TD08); assay: Inhibition of ERK7 (unknown origin) assessed as residual activity at 1 uM by Kinomescan method relative to control
[11] = target: Fibroblast growth factor receptor 4 (Homo sapiens) (UniProt P22455); assay: Inhibition of wild-type human partial length FGFR4 (G402 to E713 residues) expressed in bacterial expression system assessed as residual activity at 1 uM by Kinomescan method relative to control
[12] = target: Serine/threonine-protein kinase MARK2 (Homo sapiens) (UniProt Q7KZI7); assay: Inhibition of wild-type human partial length MARK2 (M1 to R450 residues) expressed in bacterial expression system assessed as residual activity at 1 uM by Kinomescan method relative to control
[13] = target: Mitogen-activated protein kinase kinase kinase 10 (Homo sapiens) (UniProt Q02779); assay: Inhibition of wild-type human partial length MLK2 (V52 to W380 residues) expressed in bacterial expression system assessed as residual activity at 1 uM by Kinomescan method relative to control
[14] = target: Mitogen-activated protein kinase 13 (Homo sapiens) (UniProt O15264); assay: Inhibition of wild-type human full length p38-delta (M1 to L365 residues) expressed in bacterial expression system assessed as residual activity at 1 uM by Kinomescan method relative to control
[15] = target: Platelet-derived growth factor receptor beta (Homo sapiens) (UniProt P09619); assay: Inhibition of wild-type human partial length PDGFRB (V582 to Y1009 residues) expressed in bacterial expression system assessed as residual activity at 1 uM by Kinomescan method relative to control
[16] = target: Serine/threonine-protein kinase pim-1 (Homo sapiens) (UniProt P11309); assay: Inhibition of wild-type human partial length PIM1 (A15 to K313 residues) expressed in bacterial expression system assessed as residual activity at 1 uM by Kinomescan method relative to control
[17] = target: Protein kinase C epsilon type (Homo sapiens) (UniProt Q02156); assay: Inhibition of PKCepsilon (unknown origin) assessed as residual activity at 1 uM by Kinomescan method relative to control
[18] = target: Serine/threonine-protein kinase PLK3 (Homo sapiens) (UniProt Q9H4B4); assay: Inhibition of wild-type human partial length PLK3 (A42 to L334 residues) expressed in mammalian expression system assessed as residual activity at 1 uM by Kinomescan method relative to control
[19] = target: Serine/threonine-protein kinase Sgk3 (Homo sapiens) (UniProt Q96BR1); assay: Inhibition of wild-type human partial length SGK3 (M119 to L496 residues) expressed in mammalian expression system assessed as residual activity at 1 uM by Kinomescan method relative to control
[20] = target: Tyrosine-protein kinase Tec (Homo sapiens) (UniProt P42680); assay: Inhibition of wild-type human partial length TEC (L341 to D620 residues) expressed in bacterial expression system assessed as residual activity at 1 uM by Kinomescan method relative to control
[21] = target: Serine/threonine-protein kinase WNK3 (Homo sapiens) (UniProt Q9BYP7); assay: Inhibition of wild-type human partial length WNK3 (M1 to D434 residues) expressed in mammalian expression system assessed as residual activity at 1 uM by Kinomescan method relative to control
[22] = target: Myosin light chain kinase (Homo sapiens) (UniProt Q32MK0); assay: Inhibition of MYLK3 (unknown origin) assessed as residual activity at 1 uM by Kinomescan method relative to control
[23] = target: Serine/threonine-protein kinase SIK3 (Homo sapiens) (UniProt Q9Y2K2); assay: Inhibition of SIK3 (unknown origin) assessed as residual activity at 1 uM by Kinomescan method relative to control
[24] = target: Serine/threonine-protein kinase 32B (Homo sapiens) (UniProt Q9NY57); assay: Inhibition of wild-type human full length YANK2 (M1 to S414 residues) expressed in bacterial expression system assessed as residual activity at 1 uM by Kinomescan method relative to control
[25] = target: Serine/threonine-protein kinase tousled-like 1 (Homo sapiens) (UniProt Q9UKI8); assay: Inhibition of wild-type human partial length TLK1 (K447 to A754 residues) expressed in bacterial expression system assessed as residual activity at 1 uM by Kinomescan method relative to control
[26] = target: Protein-tyrosine kinase 6 (Homo sapiens) (UniProt Q13882); assay: Inhibition of wild-type human partial length BRK (L166 to T451 residues) expressed in bacterial expression system assessed as residual activity at 1 uM by Kinomescan method relative to control

`CCOc1nc(Nc2ccc(C(=O)N3CCOCC3)cc2OC)nc2[nH]ccc12` gave a fraction unbound [1] of 0.01, an Activity [2] of 90.7% and an Activity [3] of 117%. It also gave an Activity [4] of 122%, an Activity [5] of 90.6% and an Activity [6] of 81.6%. For the same molecule, the Activity [7] was 92.8%, the Activity (Homo sapiens) was 91.6% and the Activity [8] was 95.7%. It also gave an Activity [9] of 94.4%, an Activity [10] of 99% and an Activity [11] of 83.7%. It also gave an Activity [12] of 96%, an Activity [13] of 100% and an Activity [14] of 109%. For the same molecule, the Activity [15] was 90.9%, the Activity [16] was 99.7% and the Activity [17] was 95%. The Activity [18] was 88.1%, the Activity [19] was 93.7% and the Activity [20] was 99.3%. For the same molecule, the Activity [21] was 71.8%, the Activity [22] was 96.9% and the Activity [23] was 106%. The Activity [24] was 100%, the Activity [25] was 98.1% and the Activity [26] was 45.6%.

From ChEMBL document CHEMBL4715821, “Discovery of 4-ethoxy-7H-pyrrolo[2,3-d]pyrimidin-2-amines as potent, selective and orally bioavailable LRRK2 inhibitors” (Bioorg Med Chem Lett, 2018)
